Measurements published in patent US20220249538A1, “TREATMENT AGENT FOR SEX HORMONE-INSENSITIVE GREB1-POSITIVE TUMORS” (OSAKA UNIVERSITY, priority 2019, published 2022).
d = 2'-deoxy (DNA); r = 2'-OH (RNA)

Legend:
[1] = test system: mouse fetal liver cells (BMEL); assay: mRNA expression in BMEL cells by real-time PCR; format: cell-based; conditions: CHIR99021 final concentration 5 μM
Huh6 cells = assay: mRNA expression in Huh6 cells by real-time PCR; format: cell-based, human; conditions: as in mRNA expression of Axin2
Procedure: Next, the mechanism for regulating expression of GREB1 in hepatoblastoma by YAP and c-Met was investigated. […] However, in Huh6 cells and HepG2 cells, knockdown of YAP/TAZ had no effect on expression of GREB1 (see b of FIG. 13). Further, when Huh6 cells was treated with CHIR99021, or treated with XMU-MP1, which has an inhibitory effect on Mst1/2 kinase and is an activator of YAP, or treated with CHIR99021 and XMU-MP1 in combination, mRNA expression of GREB1 was suppressed as in mRNA expression of Axin2 (see c of FIG. 13).

MCF7 = assay: mRNA expression in MCF7 cells by real-time PCR; format: cell-based, human
[2] = test system: HLE, SNU-387 SNU-449, and Huh7; assay: mRNA expression in hepatocellular cancer cells after CHIR99021 by real-time PCR; format: cell-based, human; conditions: SNU-387, SNU-449, Huh7, CHIR99021 final concentration 5 μM
HepG2 cells [3] = assay: mRNA (real-time PCR) and protein (lysate probing) expression in HepG2 cells; format: cell-based, human
Procedure: (§1) Using RNAiMAX (Life Technologies/Thermo Fisher Scientific), HepG2 cells, Huh6 cells, Hep3B cells, JHH7 cells, and SKMEL28 cells were each transfected with each siRNA (10 nm). In experiments, the cells were used from 48 to 120 hours after transfection.

GREB1 = GREB1 expression in HepG2 cells after GREB1 siRNA or GREB1 ASO (cell lysates probed with anti-GREB1 antibody); format: cell-based, human; conditions: siRNA 10 nm, lysate probing
Procedure: Phosphorothioated I5-mer antisense oligonucleotides (ASOs) containing AmNA monomers were prepared (synthesized by GeneDesign (Ibaraki, Japan)). In the present specification, “hGREB1-6424-AmNA (15)” is sometimes simply referred to as “ASO-6424” or “GREB1 ASO-6424”. Similar abbreviations are used for describing other ASOs. Using RNAiMAX (Invitrogen, Carlsbad, Calif., USA), HepG2 or COLO679 cells were transfected with 10 nM of ASOs. In experiments, the cells were used from 36 to 48 hours after transfection.
as §1
As reported previously, knockdown of β-catenin decreased HepG2 cell proliferation (see a of FIG. 3). […] Thus, to elucidate the role of GREB1 in HepG2 cells, knockdown of GREB1 was carried out using two different siRNAs.
Next, HepG2 cells were transfected with control ASO or each of the above-described GREB1 ASOs, cultured in a medium containing 10% FBS for 2 days, and the cell lysates were probed with anti-GREB1 antibody and anti-HSP90 antibody.

HepG2 cells [4] = assay: Cell viability by propidium iodide and Hoechst33342 staining; format: cell-based, human; conditions: medium without Z-VAD, 0.1% FBS, 2 days; PI and Hoechst33342
Procedure: Further, HepG2 cells were transfected with control siRNA or siRNAs (GREB1 #1 siRNA and GREB1 #2 siRNA), cultured in media (caspase inhibitor Z-VAD was contained in one condition, and not contained in the other condition) containing 0.1% FBS for 2 days, stained with propidium iodide (PI, […]) and Hoechst33342 (nucleus), and the cell viability was evaluated.
Further, HepG2 cells transfected with control siRNA, GREB1 siRNA (GREB1 #2 siRNA), p15 siRNA, or siRNA of GREB1 (GREB1 #2 siRNA) and siRNA of p15 in combination were cultured in media (caspase inhibitor Z-VAD was contained in one condition, and not contained in the other condition) containing 0.1% FBS for 2 days, stained with propidium iodide (PI) and Hoechst33342, and the cell viability was calculated.

HepG2 cells [5] = assay: Cell proliferation assay, two-dimensional culture (plastic dish), Cyquant; format: cell-based, human
Procedure: Cells were seeded on a plate at 1.0×10^4 cells/mL, and, after 12 hours, the medium was replaced with a medium containing 10% serum. While the cell number was counted every 48 hours, the cells were cultured up to 10 days. The measurement of the cell number was performed using Cyquant NF assays (Life Technologies/Thermo Fisher Scientific) according to protocols recommended by the manufacturer.
Mock HepG2 cells (having a vector only, containing no GREB1) or GREB1-transduced HepG2 cells were transfected with control siRNA or two different types of siRNA (GREB1 #1 siRNA and GREB1 #2 siRNA), then two-dimensional culture (plastic dish culture) was performed, and a relative cell number was calculated by Cyquant assay overtime. As a result, in GREB1 knockdown, proliferative capacity of HepG2 cells in two-dimensional culture was reduced. However, when GREB1-transduced HepG2 cells were transfected with siRNAs against GREB1 (GREB1 #1 siRNA/GREB1 and GREB1 #2 siRNA/GREB1), the proliferative capacity of HepG2 cells was not affected (see a of FIG. 4).

liver tumors of BYM mice = assay: Tumorigenesis by HTVi (hydrodynamic tail vein injection), BYM mice with GREB1 shRNA; format: in vivo
Procedure: In the presence of Greb1 shRNA #3 (SEQ ID NO: 8) (20 μg) or control, and pLIVE-SB13 (8 μg), pT2BH-YAPS127A (20 μg), pT2BH-ΔN90 β-catenin-mutLuc3 (20 μg), pT3-EF1a-cMET (20 μg), and GFP2ALuc were diluted in 2.5 ml of physiological saline, and injected into tail veins of 8- to 9-week old male wild-type C57BL6/N mice within 5 to 7 seconds. Livers of the mice were collected at a predetermined time after injection (or at occurrence of the tumor), and various parameters associated with tumorigenesis were assessed. Specifically, this assessment was performed according to techniques described in Tao, J. et al., (2014). Gastroenterology 147, 690-701 and Tward, A. D. et al, (2007). Proc Natl Acad Sci USA 104, 14771-14776. In this evaluation, ΔN90 β-catenin refers to a β-catenin mutant in which amino acids at positions 1 to 90 of human ft-catenin were deleted, and YAPS127A refers to a YAP mutant in which serine at positon 127 of YAP was substituted by alanine.
Further, ΔN90 β-catenin, YapS127A, and c-Met were administered to mice together with GREB1 shRNA, and the livers were collected 7 to 8 weeks after administration. As a result, in mice transduced with ΔN90 β-catenin, YAPS127A, and c-Met (BYM mice, control), a plurality of nodules were observed on the entire surfaces of the livers (see a of FIG. 14). On the other hand, in mice transduced with GREB1 shRNA together with ΔN90 β-catenin, YAPS127A, and c-Met (BYM GREB1 KD mice), the nodules in the liver were suppressed (see a of FIG. 14).

[6] = CHIR99021 in the presence or absence of ICI-182,786
[7] = BYM+ GREB1 shRNA mouse vs BYM mouse without knockdown
[8] = tumor nodules of BYM GREB1 KD mice K2 and K4, real-time PCR

**Q.** With `Cc1c[nH]c(-c2cnc(NCCNc3ccc(C#N)cn3)nc2-c2ccc(Cl)cc2Cl)n1` [CHIR99021] as the compound, how does the “expression of GREB1” value [1] read?
**A.** increased

**Q.** And the “mRNA expression of GREB1” value (Huh6 cells)?
**A.** suppressed

**Q.** And the “expression of Axin2” value (MCF7; [6])?
**A.** increased

**Q.** And the “expression of GREB1” value (MCF7; [6])?
**A.** not increased

**Q.** And the “expression of Axin2” value [2]?
**A.** increased

**Q.** And the “expression of GREB1” value [2]?
**A.** not increased

**Q.** `C[C@]12CC[C@@H]3c4ccc(O)cc4C[C@@H](CCCCCCCCC[S+]([O-])CCCC(F)(F)C(F)(F)F)[C@H]3[C@@H]1CC[C@@H]2O` (stereo partly drawn) [ICI-182,786] was tested. Which “expression level of GREB1 mRNA” value (HepG2 cells [3]; HepG2 cells treated for 48 hours, real-time PCR) did it give?
**A.** not affected

**Q.** What about the “expression of GREB1” value (MCF7; ICI-182,786 treatment, real-time PCR) of the same compound?
**A.** dramatically decreased

**Q.** What about the “mRNA expression of PAI-1” value (MCF7; estrogen receptor antagonist treatment) of the same compound?
**A.** suppresses

**Q.** For `CN1C(=O)c2sccc2N(C)c2nc(Nc3ccc(S(N)(=O)=O)cc3)ncc21` [XMU-MP1], which “mRNA expression of GREB1” value (Huh6 cells) is on record?
**A.** suppressed

**Q.** “GREB1 #1 siRNA: siRNA against human GREB1; sense 5′-GCCAUUCGUGUGCUUCCAUTT-3′ (SEQ ID NO: 4), antisense SEQ ID NO: 5 (antisense AUGGAAGCACACGAAUGGCTT; sugars from the 5' end r19 d2, backbone not given here)” was tested. Which “knockdown of GREB1 (anti-GREB1 antibody)” value (GREB1) did it give?
**A.** knocked down

**Q.** And the “amounts of cleaved caspase 3 and PARP1” value (HepG2 cells [3]; HepG2 cells, 0.1% FBS for 2 days, lysate probing)?
**A.** increased

**Q.** What about the “expressions of β-catenin and Axin2” value (HepG2 cells [3]; HepG2 cells, GREB1 knockdown, lysate probing) of the same compound?
**A.** no effect

**Q.** What about the “expression of cell cycle regulators cyclinA, cyclinB, phosphorylated histone H3” value (HepG2 cells [3]; HepG2 cells, medium containing 1% FBS for 1 day, lysate probing) of the same compound?
**A.** decreases

**Q.** What about the “cell death of HepG2 cells” value (HepG2 cells [4]) of the same compound?
**A.** elevated cell death

**Q.** What about the “proliferative capacity of HepG2 cells in two-dimensional culture” value (HepG2 cells [5]; GREB1-transduced HepG2 cells) of the same compound?
**A.** not affected

**Q.** What about the “proliferative capacity of HepG2 cells in two-dimensional culture” value (HepG2 cells [5]; mock HepG2 cells, relative cell number by Cyquant over time) of the same compound?
**A.** reduced

**Q.** How did the “incidence rate of tumorigenesis” value (liver tumors of BYM mice; BYM GREB1 KD mice K1 to K6) turn out when “GREB1 shRNA: shRNA against mouse Greb1, encoding DNA SEQ ID NO: 8, given as pT2BH-GFP2ALuc plasmid by hydrodynamic injection (DNA CCGGCTACTTTGTTAGCAATGATATCTCGAGATATCATTGCTAACAAAGTAGTTTTTTG)” was run?
**A.** decreased

**Q.** And the “mice in which any tumor was not observed” value (liver tumors of BYM mice; BYM GREB1 KD mice K1 to K6)?
**A.** 4 out of the 6

**Q.** And the “nodules in the liver” value (liver tumors of BYM mice; BYM mice, livers collected 7 to 8 weeks after administration, shRNA plasmid 20 μg HTVi)?
**A.** suppressed

**Q.** What about the “serum AFP level” value (liver tumors of BYM mice; [7]) of the same compound?
**A.** dramatically decreased

**Q.** And the “weight of the liver” value (liver tumors of BYM mice; [7])?
**A.** dramatically decreased

**Q.** What about the “GREB1 mRNA expression levels in tumors” value (liver tumors of BYM mice; [8]) of the same compound?
**A.** low

**Q.** And the “expression levels of DLK1 and TACSTD1 in tumors” value (liver tumors of BYM mice; [8])?
**A.** the same as those of the GREB1 low group of BYM mice
